Results taken from patent US7439039B2, “Assays for novel serotonin transporter (SERT) blockers” (priority 2003, dated 2008).
pEC50: −log10 of the molar value. Structures can show the parent of a compound that is named as a salt.

What follows are compounds tested against hSERT Y95F (Homo sapiens, UniProt P31645, Y95F) (assay: not given). Settings: not given.

| Compound | recognition |
| --- | --- |
| NCCc1c[nH]c2ccc(O)cc12 [5HT, 5-hydroxytryptamine] | appeared normal |

Each compound was assayed against hSERT WT (Homo sapiens, UniProt P31645) (assay: cell-based). Settings: not given.
Format: cell-based

| Compound | pEC50 |
| --- | --- |
| NCCc1c[nH]c2c(O)c(O)c(O)cc12 [5,6,7 trihydroxytryptamine] | 4.84 |
| NCCc1c[nH]c2c(O)cccc12 [7-hydroxytryptamine] | 5.85 |
| OC1(c2ccc(Cl)cc2)c2ccccc2C2=NCCN21 (stereo not drawn) [Mazindol] | 5.54 |
| CNCCC(Oc1ccccc1OC)c1ccccc1 (stereo not drawn) [Nisoxetine] | 5.87 |
| NCCc1c[nH]c2ccccc12 [Tryptamine] | 6.70 |

Same assay, conditions: read-out: EC50(μM) WT

| Compound | EC50 [µM] |
| --- | --- |
| CC(N)Cc1c[nH]c2ccc(O)cc12 (stereo not drawn) [Alpha-methylserotonin maleate] | 2.2 |
| CNC(C)Cc1ccc2c(c1)OCO2 (stereo not drawn) [MDMA] | 0.7 |
| COC(=O)[C@H]1C(c2ccc(I)cc2)C[C@@H]2CC[C@H]1N2C (stereo partly drawn) [RTI-55] | 0.0007 |
